Data from patent US12128049B2, “Dosage regimen of paliperidone palmitate extended-release injectable suspension” (Luye Innomind Pharma Shijiazhuang Co., Ltd., priority 2017, dated 2024).
“And” between values parts separate entries of the source, which are not always exact repeats. Equal entries are not always repeated.

Key:
[1] = PK in beagle dogs under Regimen A: IM 6.2 mg/kg day 1, 1.5 mg/kg day 15, 2.3 mg/kg day 36 (Group II); type: in vivo
Protocol: (§1) 20 healthy male beagle dogs (average weight about 11 kg) were randomly divided into 5 groups (Groups I-V) with 4 dogs in each group. Each animal was assigned its own number (#1-#20).
(§2) Group I animals (#1-#4) and Group IV animals (#13-#16) were tested under RLD regimen. Group II animals (#5-#8) were tested under Regimen A. Group III animals (#9-#12) and Group V animals (#17-#20) were tested under Regimen B. Table 5 summarizes the respective human dosages (mg of paliperidone) and the equivalent animal dosages (converted to mg/kg) and the dosing intervals under each dosing regimen.
(§3) The animals in each group received intramuscular injections according to the dosing regimen assigned to the group. Blood samples (1 ml/collection) were collected from the forelimb vein of each beagle immediate before administration (at 0 h), and thereafter at time intervals of 6 h (day 1), 24 hr (day 2), day 3, day 5, day 8 (prior to dosing for groups receiving RLD regimen), day 9, day 11, day 13, day 15 (prior to dosing for groups receiving Regimen A), day 17, day 19, day 22, day 24, day 26, day 29 (prior to dosing for groups receiving Regimen A), day 30, day 32, day 34, day 36 (prior to dosing for groups receiving RLD and Regimen A), day 37, day 39, day 42, day 45, day 47, day 50, day 53, day 57, day 64, day 71, day 78, and day 85. The blood samples were placed in heparinized centrifuge tubes and centrifuged for 10 min (3500 rpm). The plasma was separated, collected and stored under −80° C.

[2] = PK in beagle dogs under Regimen B: IM 6.9 mg/kg day 1, 3.1 mg/kg day 29 (Groups III, V); type: in vivo
Protocol: as §1, §2, §3

[3] = over a broad pH range; cited from earlier work
[4] = PK in beagle dogs under RLD regimen: IM 4.6 mg/kg day 1, 3.1 mg/kg day 8, 2.3 mg/kg day 36 (Groups I, IV); type: in vivo
Protocol: as §1, §2, §3

[5] = Regimen B, Group V vs Group IV (FIG. 10B)

AUC(0-t) ([1]; mean): 3208.80 µg·days/L
AUC(0-∞) ([1]; mean): 3472.24 µg·days/L
overall drug exposures (AUC) ([2]; RLD Regimen, Regimen A and Regimen B, Groups I-III (FIG. 10A)): comparable for all three Regimens
Cmax vs RLD Regimen ([2]; Regimen B, Group III vs Group I (FIG. 10A)): comparable to that of RLD Regimen
Cmax vs RLD Regimen [2, 5]: comparable to that of RLD Regimen
time to Cmax vs RLD Regimen [2, 5]: reached Cmax earlier
AUC(0-t) ([4]; Group I, mean): 3332.54 µg·days/L
AUC(0-∞) ([4]; Group I, mean): 3480.22 µg·days/L
AUC(0-t) ([4]; Group IV, mean): 2537.85 µg·days/L
AUC(0-∞) ([4]; Group IV, mean): 2591.12 µg·days/L
Compound: CCCCCCCCCCCCCCCC(=O)OC1CCCn2c1nc(C)c(CCN1CCC(c3noc4cc(F)ccc34)CC1)c2=O (racemic) [paliperidone palmitate, (9RS)-3-[2-[4-(6-Fluoro-1,2-benzisoxazol-3-yl)piperidin-1-yl]ethyl]-2-methyl-4-oxo-6,7,8,9-tetrahydro-4H-pyrido[1,2-a]pyrimadin-9-yl hexadecanoate]
AUC(0-t) ([1]; individual dogs): 4069.12 µg·days/L and 3146.75 µg·days/L and 3336.44 µg·days/L and 2282.89 µg·days/L
AUC(0-∞) ([1]; individual dogs): 4285.47 µg·days/L and 3544.02 µg·days/L and 3446.66 µg·days/L and 2612.80 µg·days/L
trough (day 28) vs RLD Regimen [2, 5]: comparable to the same-day concentration of RLD Regimen and higher than the trough of the RLD Regimen
solubility in aqueous media [3]: practically insoluble
AUC(0-t) ([4]; Group I, individual dogs): 3632.18 µg·days/L and 2010.03 µg·days/L and 3477.47 µg·days/L and 4210.47 µg·days/L
AUC(0-∞) ([4]; Group I, individual dogs): 3682.95 µg·days/L and 2012.83 µg·days/L and 4010.14 µg·days/L and 4214.96 µg·days/L
AUC(0-t) ([4]; Group IV, individual dogs): 2528.69 µg·days/L and 3241.40 µg·days/L and 3191.02 µg·days/L and 1190.27 µg·days/L
AUC(0-∞) ([4]; Group IV, individual dogs): 2546.38 µg·days/L and 3312.15 µg·days/L and 3194.15 µg·days/L and 1311.82 µg·days/L
